According to patent publication US4529549A, “Spergualin-related compounds and process for the preparation thereof” (Zaidan Hojin Biseibutsu Kagaku Kenkyu Kai, priority 1982, dated 1985):
Converted amounts (≈) assume the structure as drawn. Read-outs that look alike come from different tables or passages of the source.

What was measured:
[1] = tested on: mouse leukemia FL-4; details: cited from earlier work
[2] = tested on: sarcoma 180 (S-180); details: cited from earlier work
[3] = tested on: Gram-negative bacteria; details: cited from earlier work
[4] = Stability of the compounds in aqueous solutions (HPLC residual content); assay type: physicochemical; details: water
Procedure: Each of the compounds of this invention was dissolved in water to a concentration of 0.5 (w/w)%. The aqueous solution was maintained at 40°±1° C., and sampled at certain time intervals. Each sample was subjected to high-performance liquid chromatographic analysis to measure the area of the peak of the compound at each sampling time, and to calculate the ratio of the area of the peak after the indicated period of time to that at the first sampling time. The results of the calculation were used to determine the contents (%) of the compound of this invention in the aqueous solution after the indicated periods of time, with the initial content of said compound set at 100%.

[5] = tested on: mouse leukemia L1210 cells; test: In vitro proliferation-inhibiting action on mouse leukemia L1210 cells; assay type: cell-based; details: 48 hours at 37° C.
Procedure: Leukemia L1210 cells (1×10^5 /0.2 ml) were transplanted to female DBA/2 mice intraperitoneally. four days later, the ascitic fluid was collected and centrifuged to obtain proliferated L1210 cells. The L1210 cells collected were added to RPMI1640 medium containing bovine fetal serum and 2-mercaptoethanol, to obtain a suspension of L1210 cells having a final concentration of 5×10^4 cells/0.9 ml. Each of the compounds of this invention was dissolved in said culture medium to prepare solutions with final concentrations ranging from 0.062 to 100 μg/ml. 0.9 ml of the L1210 cell suspension and 0.1 ml of each test solution were mixed in petri dishes, and incubated for 48 hours at 37° C. in an incubator under an atmosphere of carbon dioxide gas. The number of L1210 cells was counted before and after the incubation, and that concentration of the compound which inhibited the proliferation of L1210 cells by 50% of the control's proliferation was determined (IC50).

[6] = tested on: mouse leukemia L-1210; details: cited from earlier work
[7] = tested on: Gram-positive bacteria; details: cited from earlier work
[8] = tested on: mouse leukemia L1210; test: Life-prolonging effect in mouse leukemia L1210; assay type: in vivo, mouse (male CDF1-SLC); details: once daily for 9 days, >125 effective
Procedure: (§1) Leukemia L1210 cells (1×10^5 /0.2 ml) were transplanted intraperitoneally into male CDF1 -SLC mice (6 mice/group). Each of the compounds of this invention was diluted with physiological saline to various concentrations. Each dilution was administered at a dose of 0.1 ml/10 g of body weight once daily for 9 days, starting on the day after the day of the transplantation. The mice of the control group were administered physiological saline.
The average number of days that the group receiving the compound of this invention survived was calculated. The FIGURE obtained was divided by the average number of survival days for the control group, and was multiplied by 100 (T/C (%)). T/C value more than 125 was considered to be effective.

[9] = Toxicity: change in body weight in mice transplanted with L1210; assay type: in vivo, mouse (male CDF1-SLC); details: once daily for 9 days
Procedure: as §1
Change in body weight, the measure of the toxicity of the compounds of this invention, was expressed by a difference between the change in body weight for the group receiving the compound of this invention and that for the control group receiving physiological saline and undergoing no transplantation.

[10] = tested on: Ehrlich carcinoma; details: cited from earlier work
[11] = tested on: Bacillus subtilis PCI219; test: Growth-inhibiting action on Bacillus subtilis (agar plate MIC); assay type: cell-based; details: Bacillus subtilis
Procedure: Each of the compounds of this invention was dissolved in nutrient agar media to final concentrations of 100, 50, 25, 12.5, 6.25, 3.13 and 1.56 μg/ml, to prepare agar plates for testing. Bacillus subtilis PCI219 was adjusted to a content of 1×10^6 viable cells/ml, in a culture broth, and a loopful of the broth was applied onto the agar plates. The plates were incubated for 20 hours at 37° C. under stationary conditions, and observed for the formation of colonies of Bacillus subtilis. The lowest of the concentrations at which no colonies were formed was taken to be minimum inhibitory concentration (MIC).

N=C(N)NCCCCC(O)CC(=O)NC(O)C(=O)NCCCCNCCCN (stereo not drawn) [Spergualin]
curing effect and life extension effect [1]: distinctive curing effect and life extension effect
curing effect and life extension effect [2]: distinctive curing effect and life extension effect
growth inhibitory activity [3]: growth inhibitory activity
Residual content (%) of the compound in an aqueous solution ([4]; 12 h): 94.6%
Residual content (%) of the compound in an aqueous solution ([4]; 24 h): 90.8%
Residual content (%) of the compound in an aqueous solution ([4]; 48 h): 84.6%
Residual content (%) of the compound in an aqueous solution ([4]; 72 h): 78.5%
Residual content (%) of the compound in an aqueous solution ([4]; 120 h): 69.9%
Residual content (%) of the compound in an aqueous solution ([4]; 168 h): 65.1%
IC50 [5]: 4.6 µg/mL (≈ 11.4 µM)
curing effect and life extension effect [6]: distinctive curing effect and life extension effect
growth inhibitory activity [7]: growth inhibitory activity
T/C (%) ([8]; 0.78 mg/kg/day): 129%
T/C (%) ([8]; 1.56 mg/kg/day): > 224%
T/C (%) ([8]; 3.13 mg/kg/day): > 665%
T/C (%) ([8]; 6.25 mg/kg/day): > 769%
T/C (%) ([8]; 12.50 mg/kg/day): > 700%
T/C (%) ([8]; 25.00 mg/kg/day): > 524%
T/C (%) ([8]; 50.00 mg/kg/day): > 342%
Change in body weight (g) ([9]; 0.78 mg/kg/day): +0.8 g
Change in body weight (g) ([9]; 1.56 mg/kg/day): +2.5 g
Change in body weight (g) ([9]; 3.13 mg/kg/day): +1.2 g
Change in body weight (g) ([9]; 6.25 mg/kg/day): +0.9 g
Change in body weight (g) ([9]; 12.50 mg/kg/day): +0.8 g
Change in body weight (g) ([9]; 25.00 mg/kg/day): +1.1 g
Change in body weight (g) ([9]; 50.00 mg/kg/day): +0.2 g
curing effect and life extension effect [10]: distinctive curing effect and life extension effect

Cl.Cl.Cl.N=C(N)NCCCCCCC(=O)N[C@@H](CO)C(=O)NCCCCNCCCN [Compound 2, 10-[N-(7-guanidinoheptanoyl)-L-seryl]-1,5,10-triazadecane trihydrochloride]
remaining at 12 h [4]: 100%
remaining at 24 h [4]: 100%
remaining at 48 h [4]: 99.8%
remaining at 72 h [4]: 100%
remaining at 120 h [4]: 99.7%
remaining at 168 h [4]: 99.8%
IC50 [5]: 4.5 µg/mL
MIC ([11]; PCI219, 20 h): 12.5 µg/mL
T/C (%) ([8]; 0.39 mg/kg/day): 124%
T/C (%) ([8]; 0.78 mg/kg/day): > 346%
T/C (%) ([8]; 1.56 mg/kg/day): > 769%
T/C (%) ([8]; 3.13 mg/kg/day): > 769%
T/C (%) ([8]; 6.25 mg/kg/day): > 705%
T/C (%) ([8]; 12.50 mg/kg/day): > 612%
T/C (%) ([8]; 25.00 mg/kg/day): 100%
T/C (%) ([8]; 50.00 mg/kg/day): 12.8%
Change in body weight (g) ([9]; 0.39 mg/kg/day): +2.7 g
Change in body weight (g) ([9]; 0.78 mg/kg/day): +1.5 g
Change in body weight (g) ([9]; 1.56 mg/kg/day): +1.3 g
Change in body weight (g) ([9]; 3.13 mg/kg/day): +0.6 g
Change in body weight (g) ([9]; 6.25 mg/kg/day): +1.0 g
Change in body weight ([9]; 12.50 mg/kg/day): -0.2 g

Cl.Cl.Cl.N=C(N)NCCCCCCC(=O)NCC(=O)NCCCCNCCCN [Compound 1, 10-[N-(7-guanidinoheptanoyl)-glycyl]-1,5,10-triazadecane trihydrochloride]
remaining at 12 h [4]: 99.7%
remaining at 24 h [4]: 100%
remaining at 48 h [4]: 99.7%
remaining at 72 h [4]: 99.7%
remaining at 120 h [4]: 99.8%
remaining at 168 h [4]: 99.9%
IC50 [5]: 1.7 µg/mL
MIC ([11]; PCI219, nutrient agar, 20 hours at 37° C., read-out: MIC): 6.25 µg/mL
T/C (%) ([8]; 0.39 mg/kg/day): 126%
T/C (%) ([8]; 0.78 mg/kg/day): > 250%
T/C (%) ([8]; 1.56 mg/kg/day): > 388%
T/C (%) ([8]; 3.13 mg/kg/day): > 667%
T/C (%) ([8]; 6.25 mg/kg/day): > 769%
T/C (%) ([8]; 12.50 mg/kg/day): > 528%
T/C (%) ([8]; 25.00 mg/kg/day): > 279%
T/C (%) ([8]; 50.00 mg/kg/day): 12.9%
Change in body weight (g) ([9]; 0.39 mg/kg/day): +1.8 g
Change in body weight (g) ([9]; 0.78 mg/kg/day): +2.7 g
Change in body weight (g) ([9]; 1.56 mg/kg/day): +1.0 g
Change in body weight (g) ([9]; 3.13 mg/kg/day): +0.8 g
Change in body weight (g) ([9]; 6.25 mg/kg/day): +0.9 g
Change in body weight (g) ([9]; 12.50 mg/kg/day): +0.2 g
Change in body weight ([9]; 25.00 mg/kg/day): -1.6 g
